Source: the Kinase Knowledgebase extract (Sharma et al. 2016)

molecular target: PIK3CA (human) (UniProt P42336); test: Assessment of PIK3CA Kinase Activity
Sequence (P42336 whole entry, looked up): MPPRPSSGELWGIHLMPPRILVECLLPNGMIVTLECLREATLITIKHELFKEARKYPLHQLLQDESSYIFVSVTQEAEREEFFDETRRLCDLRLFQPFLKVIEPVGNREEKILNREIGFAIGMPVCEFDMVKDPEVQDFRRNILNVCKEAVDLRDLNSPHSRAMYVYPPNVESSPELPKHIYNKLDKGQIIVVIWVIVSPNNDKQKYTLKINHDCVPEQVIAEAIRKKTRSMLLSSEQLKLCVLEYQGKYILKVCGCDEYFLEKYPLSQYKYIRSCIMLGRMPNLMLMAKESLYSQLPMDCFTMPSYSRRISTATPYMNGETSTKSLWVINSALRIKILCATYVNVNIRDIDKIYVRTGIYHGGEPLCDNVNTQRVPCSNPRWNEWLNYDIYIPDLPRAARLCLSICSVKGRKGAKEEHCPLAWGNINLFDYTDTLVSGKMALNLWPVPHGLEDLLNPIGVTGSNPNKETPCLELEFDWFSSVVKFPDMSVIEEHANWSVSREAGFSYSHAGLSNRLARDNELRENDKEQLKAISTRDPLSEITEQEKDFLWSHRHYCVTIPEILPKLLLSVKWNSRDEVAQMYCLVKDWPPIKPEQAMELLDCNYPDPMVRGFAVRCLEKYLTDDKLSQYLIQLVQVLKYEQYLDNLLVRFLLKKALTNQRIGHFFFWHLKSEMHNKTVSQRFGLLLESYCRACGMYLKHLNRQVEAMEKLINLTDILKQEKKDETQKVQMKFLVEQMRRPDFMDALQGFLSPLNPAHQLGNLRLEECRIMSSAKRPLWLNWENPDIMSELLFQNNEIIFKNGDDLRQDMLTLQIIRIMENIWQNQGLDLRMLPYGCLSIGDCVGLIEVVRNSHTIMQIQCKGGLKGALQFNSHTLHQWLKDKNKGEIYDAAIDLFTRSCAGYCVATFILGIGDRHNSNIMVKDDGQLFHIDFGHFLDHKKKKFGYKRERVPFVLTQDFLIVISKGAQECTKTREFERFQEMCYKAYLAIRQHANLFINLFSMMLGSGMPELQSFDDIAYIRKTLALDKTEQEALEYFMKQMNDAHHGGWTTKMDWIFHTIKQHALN

SMILES	IC50 [nM]
Cc1cc(-c2cnc3sc(N)nc3c2)cc2c1OCCN(c1nc(N)nc(C)c1C)C2	≤ 100
Cc1cc(-c2cnc3sc(N)nc3c2)cc2c1OCCN(c1ncnc3c1CC(C)(C)C=C3)C2	≤ 100
COc1cncc(-c2cc(C)c3c(c2)CN(c2nc(N)nc(C)c2C(C)C)CCO3)c1	≤ 100
COCc1c(C)nc(C)nc1N1CCOc2c(C)cc(-c3cnc4sc(N)nc4c3)cc2C1	≤ 100
Cc1cc(-c2cnc3sc(N)nc3c2)cc2c1OCCN(c1nc(C(C)N)nc(C)c1C(C)C)C2 (configuration not stated)	≤ 100
Cc1cc(-c2cnc3sc(N)nc3c2)cc2c1OCCN(c1nc([S+](C)[O-])nc(C)c1C(C)C)C2 (configuration not stated)	≤ 100
Cc1cc(-c2nnc(N)s2)cc2c1OCCN(c1ncncc1C(C)C)C2	≤ 100
CCN(Cc1nc(C)c(C(C)C)c(N2CCOc3c(C)cc(-c4cnc5nc[nH]c5c4)cc3C2)n1)CC(F)F	≤ 100
Cc1cc(-c2nnc(N)s2)cc2c1OCCN(c1ncnc(C)c1C)C2	≤ 100
Cc1cc(-c2nnc(N)s2)cc2c1OCCN(c1nc(N)nc(C)c1C)C2	≤ 100
Cc1cc(-c2cnc3sc(N)nc3c2)cc2c1OCCN(c1nc(N)ncc1C(C)C)C2	≤ 100
Cc1cnc(N)nc1N1CCOc2c(C)cc(-c3nnc(N)s3)cc2C1	≤ 100
CC#CCc1c(C)nc(C)nc1N1CCOc2c(C)cc(-c3cnc4sc(N)nc4c3)cc2C1	≤ 100
Cc1cc(-c2cnc3sc(N)nc3c2)cc2c1OCCN(c1ncc(C(N)=O)c(N)n1)C2	100 to 500
CCNC(=O)c1nc(C)c(C(C)C)c(N2CCOc3c(C)cc(-c4cnc5sc(N)nc5c4)cc3C2)n1	≤ 100
Cc1cc(-c2cnc3sc(N)nc3c2)cc2c1OCCN(c1nc(CN3CCCC3)nc(C)c1C(C)C)C2	≤ 100
Cc1cc(-c2cnc3sc(N)nc3c2)cc2c1OCCN(c1nc(N)nc(C)c1C(C)C)C2	≤ 100
Cc1cc(-c2cnc3sc(N)nc3c2)cc2c1OCCN(c1ncnc(Cl)c1C(C)C)C2	≤ 100
Cc1cc(-c2cnc3sc(N)nc3c2)cc2c1OCCN(c1nc(CN3CCC(F)(F)C3)nc(C)c1C(C)C)C2	≤ 100
Cc1cc(-c2cn[nH]c2)cc2c1OCCN(c1nc(N)nc(C)c1C(C)C)C2	≤ 100
Cc1cc(-c2cnc(Cl)c(NS(C)(=O)=O)c2)cc2c1OCCN(c1nc(C(=O)NCCN(C)C)nc(C)c1C(C)C)C2	≤ 100
Cc1cc(-c2cnc3sc(N)nc3c2)cc2c1OCCN(c1nc(CNCCF)nc(C)c1C(C)C)C2	≤ 100
C=Cc1c(C)nc(N)nc1N1CCOc2c(C)cc(-c3cnc4sc(N)nc4c3)cc2C1	≤ 100
Cc1cc(-c2cnc(Cl)c(NS(C)(=O)=O)c2)cc2c1OCCN(c1nc(CNCC(F)F)nc(C)c1C(C)C)C2	≤ 100
CCc1nc(CN(C)C)nc(N2CCOc3c(C)cc(-c4cnc5sc(N)nc5c4)cc3C2)c1CC	≤ 100
Cc1cc(-c2cnc3sc(N)nc3c2)cc2c1OCCN(c1nc(N)c(C#N)cc1C#N)C2	≤ 100

SMILES	IC50 [nM]
Cc1cc(-c2cnc3sc(N)nc3c2)cc2c1OCCN(c1nc(CNCC(F)(F)F)nc(C)c1C(C)C)C2	≤ 100
COCC(C)c1c(C)nc(C)nc1N1CCOc2c(C)cc(-c3cnc4sc(N)nc4c3)cc2C1 (configuration not stated)	≤ 100
Cc1cc(-c2cnc(Cl)c(NS(C)(=O)=O)c2)cc2c1OCCN(c1ncc(C(F)(F)F)c(N)n1)C2	≤ 100
Cc1cc(-c2cncc(NS(C)(=O)=O)c2)cc2c1OCCN(c1nc(N)nc(C)c1C(C)C)C2	≤ 100
C=Cc1c(Cl)nc(N)nc1N1CCOc2c(C)cc(-c3cnc4sc(N)nc4c3)cc2C1	≤ 100
CNC(=O)c1sc(N2CCOc3c(C)cc(-c4cnc(Cl)c(NS(C)(=O)=O)c4)cc3C2)nc1C(C)C	100 to 500
CSc1nc(Cl)c(C(C)(C)O)c(N2CCOc3c(C)cc(-c4cnc5sc(N)nc5c4)cc3C2)n1	100 to 500
Cc1cc(-c2ccn[nH]2)cc2c1OCCN(c1nc(N)nc(C)c1C(C)C)C2	≤ 100
Cc1cc(-c2ccncc2)cc2c1OCCN(c1nc(N)nc(C)c1C(C)C)C2	≤ 100
COCCc1c(C)ncnc1N1CCOc2c(C)cc(-c3cnc4sc(N)nc4c3)cc2C1	≤ 100
C=Cc1c(CC)nc(N)nc1N1CCOc2c(C)cc(-c3cnc4sc(N)nc4c3)cc2C1	≤ 100
Cc1nc(C)c(C(C)C)c(N2CCOc3c(C)cc(-c4cnc5sc(N)nc5c4)cc3C2)n1	≤ 100
COCCc1c(C)nc(N)nc1N1CCOc2c(C)cc(-c3cnc4sc(N)nc4c3)cc2C1	≤ 100
Cc1cc(-c2cccc(O)c2)cc2c1OCCN(c1nc(N)nc(C)c1C(C)C)C2	≤ 100
CCN(CC)Cc1nc(C)c(C(C)C)c(N2CCOc3c(C)cc(-c4cnc5sc(N)nc5c4)cc3C2)n1	≤ 100
Cc1cc(-c2cnc3sc(N)nc3c2)cc2c1OCCN(c1nc(C(O)C(F)(F)F)nc(C)c1C(C)C)C2 (configuration not stated)	≤ 100
C#Cc1c(C)nc(N)nc1N1CCOc2c(C)cc(-c3cnc4sc(N)nc4c3)cc2C1	≤ 100
Cc1ncc(C(C)C)c(N2CCOc3c(C)cc(-c4nnc(N)s4)cc3C2)n1	≤ 100
COCc1nc(C)c(C(C)C)c(N2CCOc3c(C)cc(-c4cnc5sc(N)nc5c4)cc3C2)n1	≤ 100
Cc1cc(-c2cnc3sc(N)nc3c2)cc2c1OCCN(c1nc([C@@H]3C[C@@H](F)CN3)nc(C)c1C(C)C)C2	≤ 100
Cc1cc(-c2cccc(C(N)=O)c2)cc2c1OCCN(c1nc(N)nc(C)c1C(C)C)C2	100 to 500
Cc1cc(-c2cnc(Cl)c(NS(C)(=O)=O)c2)cc2c1OCCN(c1nc(CNCCF)nc(C)c1C(C)C)C2	≤ 100
Cc1cc(-c2cn(C)nc2C)cc2c1OCCN(c1nc(N)nc(C)c1C(C)C)C2	≤ 100
Cc1cc(-c2cnc3sc(N)nc3c2)cc2c1OCCN(c1nc(N)c(C#N)c(C)c1C#N)C2	≤ 100
Cc1ncc(-c2cc(C)c3c(c2)CN(c2nc(N)nc(C)c2C(C)C)CCO3)s1	100 to 500
COc1ncc(-c2cc(C)c3c(c2)CN(c2nc(N)nc(C)c2C(C)C)CCO3)cc1NS(C)(=O)=O	≤ 100

SMILES	IC50 [nM]
Cc1cc(-c2cnc3sc(N)nc3c2)cc2c1OCCN(c1ncc(F)c(N)n1)C2	≤ 100
Cc1cc(-c2nnc(N)s2)cc2c1OCCN(c1nc(N)ncc1C(C)C)C2	≤ 100
Cc1cc(-c2cnc3sc(N)nc3c2)cc2c1OCCN(c1nccc(N)n1)C2	100 to 500
Cc1cnc(N2CCOc3c(C)cc(-c4cnc5sc(N)nc5c4)cc3C2)nc1N	100 to 500
Cc1cc(-c2cnc3sc(N)nc3c2)cc2c1OCCN(c1nc(N3CCN(C)CC3)nc(C)c1C(C)C)C2	≤ 100
Cc1cc(-c2cnc3sc(N)nc3c2)cc2c1OCCN(c1nc(N)nc(C)c1CC1CC1)C2	≤ 100
CCCc1c(C)nc(N)nc1N1CCOc2c(C)cc(-c3cnc4sc(N)nc4c3)cc2C1	≤ 100
Cc1cc(-c2cccnc2)cc2c1OCCN(c1nc(N)nc(C)c1C(C)C)C2	≤ 100
Cc1cc(-c2ccc3c(c2)OCO3)cc2c1OCCN(c1nc(N)nc(C)c1C(C)C)C2	≤ 100
Cc1nc2cc(-c3cc(C)c4c(c3)CN(c3nc(N)nc(C)c3C(C)C)CCO4)cnc2[nH]1	≤ 100
Cc1cc(-c2cnc3sc(N)nc3c2)cc2c1OCCN(c1nc(N)ncc1C(F)(F)F)C2	≤ 100
COCCc1cnc(C)nc1N1CCOc2c(C)cc(-c3cnc4sc(N)nc4c3)cc2C1	≤ 100
Cc1cc(-c2cnc3sc(N)nc3c2)cc2c1OCCN(c1nc(C(F)F)nc(C)c1C(C)C)C2	≤ 100
COCCc1c(C)nc(C)nc1N1CCOc2c(C)cc(-c3cnc4sc(N)nc4c3)cc2C1	≤ 100
CNc1nc(C)c(C(C)C)c(N2CCOc3c(C)cc(-c4cnc5sc(N)nc5c4)cc3C2)n1	≤ 100
Cc1cc(-c2cnc3sc(N)nc3c2)cc2c1OCCN(c1nc(C(F)(F)F)nc(C)c1C(C)C)C2	≤ 100
COC(C)c1c(C)nc(C)nc1N1CCOc2c(C)cc(-c3cnc4sc(N)nc4c3)cc2C1 (configuration not stated)	≤ 100
Cc1cc(-c2cnc3sc(N)nc3c2)cc2c1OCCN(c1nc(CNC(C)(C)C)nc(C)c1C(C)C)C2	≤ 100
Cc1cc(-c2cnc3nc[nH]c3c2)cc2c1OCCN(c1nc(CNCC(F)F)nc(C)c1C(C)C)C2	≤ 100
Cc1nc2ncc(-c3cc(C)c4c(c3)CN(c3nc(CNCC(F)F)nc(C)c3C(C)C)CCO4)cc2[nH]1	≤ 100
Cc1cc(-c2cnc3sc(N)nc3c2)cc2c1OCCN(c1nccnc1C#N)C2	100 to 500
Cc1cc(-c2cnc3sc(N)nc3c2)cc2c1OCCN(c1ncncc1C(C)C)C2	≤ 100
Cc1cc(-c2cnc3sc(N)nc3c2)cc2c1OCCN(c1nc(C3CCCN3C)nc(C)c1C(C)C)C2 (configuration not stated)	≤ 100
Cc1cc(-c2cnc3sc(N)nc3c2)cc2c1OCCN(c1nc(CN(C)CCF)nc(C)c1C(C)C)C2	≤ 100
Cc1cc(-c2cnc3sc(N)nc3c2)cc2c1OCCN(c1nc(CN)nc(C)c1C(C)C)C2	≤ 100
